Data on eleven molecules can be found in US12441768B2, “Compositions and methods for treating endometriosis” (EndoMet Biosciences, Inc., priority 2018, dated 2025).

For the assay, the target named is T1, β-catenin (Homo sapiens, UniProt P35222).
T1 sequence (P35222 1-781): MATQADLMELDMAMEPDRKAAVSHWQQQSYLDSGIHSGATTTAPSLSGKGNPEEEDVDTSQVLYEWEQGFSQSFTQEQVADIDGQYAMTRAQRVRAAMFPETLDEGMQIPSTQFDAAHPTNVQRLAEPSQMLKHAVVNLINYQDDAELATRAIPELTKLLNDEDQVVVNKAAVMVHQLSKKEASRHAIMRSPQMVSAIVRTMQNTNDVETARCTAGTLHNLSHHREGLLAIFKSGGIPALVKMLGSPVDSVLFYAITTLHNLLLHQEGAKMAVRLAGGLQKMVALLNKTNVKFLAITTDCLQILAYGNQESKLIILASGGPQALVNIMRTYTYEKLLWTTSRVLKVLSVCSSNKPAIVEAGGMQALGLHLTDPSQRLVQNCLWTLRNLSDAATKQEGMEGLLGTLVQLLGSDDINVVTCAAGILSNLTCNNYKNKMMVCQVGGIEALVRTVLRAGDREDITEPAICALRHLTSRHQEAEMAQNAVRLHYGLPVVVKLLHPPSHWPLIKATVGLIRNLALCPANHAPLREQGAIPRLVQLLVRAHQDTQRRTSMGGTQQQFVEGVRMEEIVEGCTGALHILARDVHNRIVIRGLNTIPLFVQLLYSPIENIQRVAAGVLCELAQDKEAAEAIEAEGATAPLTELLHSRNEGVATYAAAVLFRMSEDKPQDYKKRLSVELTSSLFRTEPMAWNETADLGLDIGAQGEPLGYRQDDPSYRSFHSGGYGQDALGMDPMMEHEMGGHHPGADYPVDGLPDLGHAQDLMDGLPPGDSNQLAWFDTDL
Description: KD50 measurement using competitive fluorescence polarization (FP) with labelled TCF4. In kind it is binding. The settings on record: fluorescence polarization, β-catenin. In a few lines:
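Polarization readout (470 nm excitation, 520 nm emission) tracks loss of labelled TCF4 binding to β-catenin as test compound competes. Conditions were 5 nM tracer, 100 nM β-catenin, room temperature, compound serially diluted from 10 nM to 30 uM; run in triplicate experiments.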
Background: Fluorescence polarisation rises when a labelled molecule tumbles more slowly, as on binding a larger partner.

Read-outs that look alike come from different tables or passages of the source. Where a SMILES comes first, the peptide text is derived from it. A value given as a limit tells only on which side of the number the result lay.

The term Kd denotes the equilibrium constant for the complex coming apart.

As to `CCCCCCCCCCCCCCCC(=O)N[C@@H](Cc1c[nH]c2ccccc12)C(=O)N(C)[C@@H](C)C(=O)N[C@@H](CCC(N)=O)C(=O)N[C@H]1CCCCNC(=O)C[C@@H](C(=O)N[C@@H](Cc2c[nH]cn2)C(=O)N[C@H](C(=O)N[C@@H](CCC(N)=O)C(=O)N[C@@H](C)C(=O)N[C@H](C(N)=O)C(C)C)C2CCCCC2)NC(=O)[C@H](CC(N)=O)NC(=O)[C@H](CC(C)C)NC(=O)[C@H]([C@@H](C)CC)NC1=O` [compound 454] (HELM PEPTIDE1{[CCCCCCCCCCCCCCCC(=O)[*:2]].W.[meA].Q.K.I.L.N.D.H.[O=C([C@@H](N[*:1])C1CCCCC1)[*:2]].Q.A.V.[am]}$PEPTIDE1,PEPTIDE1,5:R3-9:R3$$$V2.0), for the setting “β-Cat FP KD”, the Kd was 1 to 10 µM.

As to `CC[C@H](C)[C@@H]1NC(=O)[C@@H](NC(=O)[C@H](CCC(N)=O)NC(=O)C(C)(C)NC(=O)[C@H](Cc2c[nH]c3ccccc23)NC(C)=O)CCCCNC(=O)C[C@@H](C(=O)N[C@@H](Cc2c[nH]cn2)C(=O)N[C@H](C(=O)N[C@@H](CCC(N)=O)C(=O)N[C@@H](CCCNC(=N)N)C(=O)N[C@H](C(=O)N[C@@H](Cc2c[nH]c3ccccc23)C(N)=O)C(C)C)C2CCCCC2)NC(=O)[C@H](CC(N)=O)NC(=O)[C@H](CC(C)C)NC1=O` [compound 455] (HELM PEPTIDE1{[ac].W.[Aib].Q.K.I.L.N.D.H.[O=C([C@@H](N[*:1])C1CCCCC1)[*:2]].Q.R.V.W.[am]}$PEPTIDE1,PEPTIDE1,5:R3-9:R3$$$V2.0), the “β-Cat FP Hill slope” value amounted to 1.03. For the same molecule, the equilibrium dissociation constant (Kd) (read-out: β-Cat FP KD) is under 0.4 µM.

With `CC[C@H](C)[C@@H]1NC(=O)[C@@H](NC(=O)[C@H](CCC(N)=O)NC(=O)[C@H](C)N(C)C(=O)[C@H](Cc2c[nH]c3ccccc23)NC(C)=O)CCCCNC(=O)C[C@@H](C(=O)N[C@@H](Cc2c[nH]cn2)C(=O)N[C@H](C(=O)N[C@@H](CCC(N)=O)C(=O)N[C@@H](C)C(=O)N[C@H](C(=O)N[C@@H](Cc2c[nH]c3ccccc23)C(N)=O)C(C)C)C2CCCCC2)NC(=O)[C@H](CC(N)=O)NC(=O)[C@H](CC(C)C)NC1=O` [compound 458] (HELM PEPTIDE1{[ac].W.[meA].Q.K.I.L.N.D.H.[O=C([C@@H](N[*:1])C1CCCCC1)[*:2]].Q.A.V.W.[am]}$PEPTIDE1,PEPTIDE1,5:R3-9:R3$$$V2.0), the “β-Cat FP Hill slope” value is given as 0.7. Also, the dissociation constant Kd (read-out: β-Cat FP KD) fell in the range of 0.4 to 1 µM.

For the molecule `CCCCCCCCCCCC(=O)N[C@@H](Cc1c[nH]c2ccccc12)C(=O)N(C)[C@@H](C)C(=O)N[C@@H](CCC(N)=O)C(=O)N[C@H]1CCCCNC(=O)C[C@@H](C(=O)N[C@@H](Cc2c[nH]cn2)C(=O)N[C@H](C(=O)N[C@@H](CCC(N)=O)C(=O)N[C@@H](C)C(=O)N[C@H](C(=O)N[C@@H](Cc2c[nH]c3ccccc23)C(N)=O)C(C)C)C2CCCCC2)NC(=O)[C@H](CC(N)=O)NC(=O)[C@H](CC(C)C)NC(=O)[C@H]([C@@H](C)CC)NC1=O` [compound 459] (HELM PEPTIDE1{[CCCCCCCCCCCC(=O)[*:2]].W.[meA].Q.K.I.L.N.D.H.[O=C([C@@H](N[*:1])C1CCCCC1)[*:2]].Q.A.V.W.[am]}$PEPTIDE1,PEPTIDE1,5:R3-9:R3$$$V2.0), the equilibrium dissociation constant (Kd) (read-out: β-Cat FP KD) is under 0.4 µM.

As for `CC[C@H](C)[C@H](NC(=O)[C@H](CO)NC(=O)[C@H](CCC(N)=O)NC(=O)[C@H](C)N(C)C(=O)[C@H](Cc1c[nH]c2ccccc12)NC(C)=O)C(=O)N[C@@H](CC(C)C)C(=O)N[C@@H](CC(=O)O)C(=O)N[C@H]1CCCCNC(=O)C[C@@H](C(=O)N[C@H](C(=O)N[C@@H](Cc2c[nH]c3ccccc23)C(N)=O)C(C)C)NC(=O)[C@H](CCC(N)=O)NC(=O)[C@H](C2CCCCC2)NC(=O)[C@H](Cc2c[nH]cn2)NC1=O` [compound 460] (HELM PEPTIDE1{[ac].W.[meA].Q.S.I.L.D.K.H.[O=C([C@@H](N[*:1])C1CCCCC1)[*:2]].Q.D.V.W.[am]}$PEPTIDE1,PEPTIDE1,9:R3-13:R3$$$V2.0), the “β-Cat FP Hill slope” value came out at 0.7. In addition, the dissociation constant (Kd) (read-out: β-Cat FP KD) is under 0.4 µM.

Turning to `CCCCCCCCCCCC(=O)N[C@@H](Cc1c[nH]c2ccccc12)C(=O)N(C)[C@@H](C)C(=O)N[C@@H](CCC(N)=O)C(=O)N[C@@H](CO)C(=O)N[C@H](C(=O)N[C@@H](CC(C)C)C(=O)N[C@@H](CC(=O)O)C(=O)N[C@H]1CCCCNC(=O)C[C@@H](C(=O)N[C@H](C(=O)N[C@@H](Cc2c[nH]c3ccccc23)C(N)=O)C(C)C)NC(=O)[C@H](CCC(N)=O)NC(=O)[C@H](C2CCCCC2)NC(=O)[C@H](Cc2c[nH]cn2)NC1=O)[C@@H](C)CC` [compound 461] (HELM PEPTIDE1{[CCCCCCCCCCCC(=O)[*:2]].W.[meA].Q.S.I.L.D.K.H.[O=C([C@@H](N[*:1])C1CCCCC1)[*:2]].Q.D.V.W.[am]}$PEPTIDE1,PEPTIDE1,9:R3-13:R3$$$V2.0), the dissociation constant Kd (read-out: β-Cat FP KD) was under 0.4 µM.

Consider `CC[C@H](C)[C@H](NC(=O)[C@H](CO)NC(=O)[C@H](CCC(N)=O)NC(=O)[C@@H]1CCCN1C(=O)[C@H](Cc1c[nH]c2ccccc12)NC(C)=O)C(=O)N[C@@H](CC(C)C)C(=O)N[C@@H](CC(=O)O)C(=O)N[C@H]1CCCCNC(=O)C[C@@H](C(=O)N[C@H](C(=O)N[C@@H](Cc2c[nH]c3ccccc23)C(N)=O)C(C)C)NC(=O)[C@H](CCC(N)=O)NC(=O)[C@H](C2CCCCC2)NC(=O)[C@H](Cc2c[nH]cn2)NC1=O` [compound 462] (HELM PEPTIDE1{[ac].W.P.Q.S.I.L.D.K.H.[O=C([C@@H](N[*:1])C1CCCCC1)[*:2]].Q.D.V.W.[am]}$PEPTIDE1,PEPTIDE1,9:R3-13:R3$$$V2.0), for which the “β-Cat FP Hill slope” value turned out to be 0.76. In addition, the dissociation constant (Kd) (read-out: β-Cat FP KD) was under 0.4 µM.

In the case of `CCCCCCCCCCCC(=O)N[C@@H](Cc1c[nH]c2ccccc12)C(=O)N1CCC[C@H]1C(=O)N[C@@H](CCC(N)=O)C(=O)N[C@@H](CO)C(=O)N[C@H](C(=O)N[C@@H](CC(C)C)C(=O)N[C@@H](CC(=O)O)C(=O)N[C@H]1CCCCNC(=O)C[C@@H](C(=O)N[C@H](C(=O)N[C@@H](Cc2c[nH]c3ccccc23)C(N)=O)C(C)C)NC(=O)[C@H](CCC(N)=O)NC(=O)[C@H](C2CCCCC2)NC(=O)[C@H](Cc2c[nH]cn2)NC1=O)[C@@H](C)CC` [compound 463] (HELM PEPTIDE1{[CCCCCCCCCCCC(=O)[*:2]].W.P.Q.S.I.L.D.K.H.[O=C([C@@H](N[*:1])C1CCCCC1)[*:2]].Q.D.V.W.[am]}$PEPTIDE1,PEPTIDE1,9:R3-13:R3$$$V2.0), under “read-out: β-Cat FP KD”, the Kd is under 0.4 µM.

In the case of `CC[C@H](C)[C@@H]1NC(=O)[C@@H](NC(=O)[C@H](CCC(N)=O)NC(=O)[C@H](C)N(C)C(=O)[C@H](Cc2c[nH]c3ccccc23)NC(C)=O)CCCCNC(=O)CC[C@@H](C(=O)N[C@@H](Cc2c[nH]cn2)C(=O)N[C@H](C(=O)N[C@H]2CCC(=O)NCCCC[C@@H](C(N)=O)NC(=O)[C@H](Cc3c[nH]c4ccccc34)NC(=O)[C@H](C(C)C)NC(=O)[C@H](CC(=O)O)NC2=O)C2CCCCC2)NC(=O)[C@H](CC(=O)O)NC(=O)[C@H](CC(C)C)NC1=O` [compound 464] (HELM PEPTIDE1{[ac].W.[meA].Q.K.I.L.D.E.H.[O=C([C@@H](N[*:1])C1CCCCC1)[*:2]].E.D.V.W.K.[am]}$PEPTIDE1,PEPTIDE1,5:R3-9:R3|PEPTIDE1,PEPTIDE1,12:R3-16:R3$$$V2.0; bridges inferred), the “β-Cat FP Hill slope” value is 0.7.

Consider `CC[C@H](C)[C@H](NC(=O)[C@H](CO)NC(=O)[C@H](CCC(N)=O)NC(=O)[C@H](C)N(C)C(=O)[C@H](Cc1c[nH]c2ccccc12)NC(C)=O)C(=O)N[C@@H](CC(C)C)C(=O)N[C@@H](CC(=O)O)C(=O)N[C@H]1CCC(=O)NCCCC[C@@H](C(=O)N[C@H](C(=O)N[C@@H](Cc2c[nH]c3ccccc23)C(N)=O)C(C)C)NC(=O)[C@H](CCC(N)=O)NC(=O)[C@H](C2CCCCC2)NC(=O)[C@H](Cc2c[nH]cn2)NC1=O` [compound 466] (HELM PEPTIDE1{[ac].W.[meA].Q.S.I.L.D.E.H.[O=C([C@@H](N[*:1])C1CCCCC1)[*:2]].Q.K.V.W.[am]}$PEPTIDE1,PEPTIDE1,9:R3-13:R3$$$V2.0), for which the “β-Cat FP Hill slope” value is on record as 0.72. Moreover, where the note is “read-out: β-Cat FP KD”, the Kd was under 0.4 µM.

Turning to `CCCCCCCCCCCC(=O)N[C@@H](Cc1c[nH]c2ccccc12)C(=O)N(C)[C@@H](C)C(=O)N[C@@H](CCC(N)=O)C(=O)N[C@@H](CO)C(=O)N[C@H](C(=O)N[C@@H](CC(C)C)C(=O)N[C@@H](CC(=O)O)C(=O)N[C@H]1CCC(=O)NCCCC[C@@H](C(=O)N[C@H](C(=O)N[C@@H](Cc2c[nH]c3ccccc23)C(N)=O)C(C)C)NC(=O)[C@H](CCC(N)=O)NC(=O)[C@H](C2CCCCC2)NC(=O)[C@H](Cc2c[nH]cn2)NC1=O)[C@@H](C)CC` [compound 467] (HELM PEPTIDE1{[CCCCCCCCCCCC(=O)[*:2]].W.[meA].Q.S.I.L.D.E.H.[O=C([C@@H](N[*:1])C1CCCCC1)[*:2]].Q.K.V.W.[am]}$PEPTIDE1,PEPTIDE1,9:R3-13:R3$$$V2.0), the dissociation constant Kd (read-out: β-Cat FP KD) is under 0.4 µM.
